The assay concerns KRAS G12C mutant human non-small cell lung cancer cells NCI-H358. Description: 3D cell proliferation inhibition assay, NCI-H358. The format is cell-based. The conditions noted are these: Homo sapiens, NCI-H358, 168 h, 7 days, CTG. The method, then:
Inhibition of 3D cell proliferation by the compounds was investigated on KRAS G12C mutant human non-small cell lung cancer cells NCI-H358 (ATCC or Stem Cell Bank, Chinese Academy of Sciences), KRAS G12D mutant human metastatic pancreatic adenocarcinoma cells AsPC-1 (ATCC), KRAS G12V mutant human lung adenocarcinoma cells NCI-H441 (ATCC), and KRAS G13D mutant human colorectal adenocarcinoma epithelial cells DLD-1 (ATCC). The specific procedures were as follows:
200 nL of compound solution diluted in a gradient was added to corresponding microwells of a 384-well low-adsorption microwell plate (Corning, 3657) using an Echo sonic pipetting system (Labcyte, Echo 550), so that the final concentration of the test compound in the reaction system was in a range of 20000 nM-0.008 nM. Then 40 μL of cells at a certain density were added to the corresponding microplate. In addition to test wells for the test compounds, both a DMSO control well and a medium control well were set, with the DMSO control well containing DMSO and cells and the medium well containing only medium. After sample loading, the plate cover was applied, and the 384-well low-adsorption microplate was incubated in an incubator at 37° C. with 5% carbon dioxide for 7 days. After 7 days, the microplate was taken out, and 40 μL of CTG reagent (Promega, G9683) was added to each well. The plate was incubated at room temperature for 30 min and read on a microplate reader EnVision using the chemiluminescence program. The inhibition rates of the compounds at each concentration were calculated by the formula for the percentage inhibition of cell proliferation: inhibition rate %=(mean value of DMSO control group−single concentration reading value of compound)/(mean value of DMSO control group−mean value of medium control group)×100, and then nonlinear curve fitting was performed by GraphPad Prism 8 in the logarithmic concentration-inhibition rate to obtain the IC50 values of the compounds.

A value given as a limit tells only on which side of the number the result lay.

The compound `COc1cc2nc(C)nc(N[C@H](C)c3cc(N)cc(C(F)(F)F)c3)c2cc1[C@H]1CC[C@H](C(=O)N2CCN(CCOCC3CCN(C(=O)c4ccc(Cl)c(N5CCC(=O)NC5=O)c4)CC3)CC2)CC1` [Example 33, 1-(5-(4-((2-(4-((1R,4R)-4-(4-(((R)-1-(3-amino-5-(trifluoromethyl)phenyl)ethyl)amino)-7-methoxy-2-methylquinazolin-6-yl)cyclohexane-1-carbonyl)piperazin-1-yl)ethoxy)methyl)piperidine-1-carbonyl)-2-chlorophenyl)dihydropyrimidine-2,4(1H,3H)-dione] gave an IC50 of at most 15 nM.

Take `COc1cc2nc(C)nc(N[C@H](C)c3cc(N)cc(C(F)(F)F)c3)c2cc1[C@H]1CC[C@H](C(=O)N2CCN(CC3CCC4(CC3)CCN(C(=O)c3ccc(Cl)c(N5CCC(=O)NC5=O)c3)CC4)CC2)CC1` [Example 2, 1-(5-(9-((4-((1R,4R)-4-(4-(((R)-1-(3-amino-5-(trifluoromethyl)phenyl)ethyl)amino)-7-methoxy-2-methylquinazolin-6-yl)cyclohexane-1-carbonyl)piperazin-1-yl)methyl)-3-azaspiro[5.5]undecane-3-carbonyl)-2-chlorophenyl)dihydropyrimidine-2,4(1H,3H)-dione]: the IC50 is at most 15 nM.

Take `COc1cc2nc(C)nc(N[C@H](C)c3cc(N)cc(C(F)(F)F)c3)c2cc1[C@H]1CC[C@H](C(=O)N2CCN(CCC3CCC4(CC3)CCN(C(=O)c3ccc(Cl)c(N5CCC(=O)NC5=O)c3)CC4)CC2)CC1` [Example 1, 1-(5-(9-(2-(4-((1R,4R)-4-(4-(((R)-1-(3-amino-5-(trifluoromethyl)phenyl)ethyl)amino)-7-methoxy-2-methylquinazolin-6-yl)cyclohexane-1-carbonyl)piperazin-1-yl)ethyl)-3-azaspiro[5.5]undecane-3-carbonyl)-2-chlorophenyl)dihydropyrimidine-2,4(1H,3H)-dione]: the IC50 is at most 15 nM.

Consider `COc1cc2nc(C)nc(N[C@H](C)c3cc(N)cc(C(F)(F)F)c3)c2cc1[C@H]1CC[C@H](C(=O)N2CCC(CCOCC3CCN(C(=O)c4ccc(Cl)c(N5CCC(=O)NC5=O)c4)CC3)CC2)CC1` [Example 19, 1-(5-(4-((2-(1-((1R,4R)-4-(4-(((R)-1-(3-amino-5-(trifluoromethyl)phenyl)ethyl)amino)-7-methoxy-2-methylquinazolin-6-yl)cyclohexane-1-carbonyl)piperidin-4-yl)ethoxy)methyl)piperidine-1-carbonyl)-2-chlorophenyl)dihydropyrimidine-2,4(1H,3H)-dione], for which the IC50 was at most 15 nM.

For `COc1cc2nc(C)nc(N[C@H](C)c3cccc4c3CCS4(=O)=O)c2cc1[C@H]1CC[C@H](C(=O)N2CCN(CC3CCC4(CC3)CCN(C(=O)c3ccc(Cl)c(N5CCC(=O)NC5=O)c3)CC4)CC2)CC1` [Example 10, 1-(2-chloro-5-(9-((4-((1R,4R)-4-(4-(((R)-1-(1,1-dioxo-2,3-dihydrobenzo[b]thiophen-4-yl)ethyl)amino)-7-methoxy-2-methylquinazolin-6-yl)cyclohexane-1-carbonyl)piperazin-1-yl)methyl)-3-azaspiro[5.5]undecane-3-carbonyl)phenyl)dihydropyrimidine-2,4(1H,3H)-dione], the IC50 was at most 15 nM.

Compound `CNCc1ccccc1-c1csc([C@@H](C)Nc2nc(C)nc3cc(OC)c([C@H]4CC[C@H](C(=O)N5CCN(CC6CCC7(CC6)CCN(C(=O)c6ccc(OC)c(N8CCC(=O)NC8=O)c6)CC7)CC5)CC4)cc23)c1` [Example 73, 1-(2-methoxy-5-(9-((4-((1R,4R)-4-(7-methoxy-2-methyl-4-(((R)-1-(4-(2-((methylamino)methyl)phenyl)thien-2-yl)ethyl)amino)quinazolin-6-yl)cyclohexane-1-carbonyl)piperazin-1-yl)methyl)-3-azaspiro[5.5]undecane-3-carbonyl)phenyl)dihydropyrimidine-2,4(1H,3H)-dione] yielded an IC50 of at most 15 nM.

The term IC50 denotes the concentration that inhibits the measured activity by half. A low value points to greater potency.

(Values after patent publication US20240261417A1, “SOS1 DEGRADING AGENT AND PREPARATION METHOD THEREFOR AND APPLICATION THEREOF” (SHANGHAI LEADINGTAC PHARMACEUTICAL CO. LTD., priority 2021, published 2024).)
